Measured values as given in PubChem BioAssay AID1963834 (Molecular Pharmacology Branch, DTP, NCI, 2024).

Test system: 873145-292-R-J1-PDC complex spheroid viability
Assay: Anticancer human tumor 873145-292-R-J1-PDC patient-derived renal clear cell carcinoma cell line growth inhibition [POLQ]
Settings: for IC50: curve of first compound; for viability, T/C: stronger effect = lower value
Method in brief: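 Patient-derived tumour cells were co-cultured with HUVEC and mesenchymal stem cells as multicellular spheroids at 37 °C. They were treated with POLQ inhibitors (novobiocin, ART-558, RP6685) alone or combined with other agents. Top concentrations were at or near clinical Cmax (otherwise 10 microM; SN-38 at 1 microM), decreasing in half-log steps.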

[1] = second compound 0.0316 µM, first compound 0.00316 µM
[2] = second compound 0.0316 µM, first compound 0.01 µM
[3] = second compound 0.0316 µM, first compound 0.0316 µM
[4] = second compound 0.0316 µM, first compound 0.1 µM
[5] = second compound 0.0316 µM, first compound 0.316 µM
[6] = second compound 0.0316 µM, first compound 1 µM
[7] = second compound 0.1 µM, first compound 0.00316 µM
[8] = second compound 0.1 µM, first compound 0.01 µM
[9] = second compound 0.1 µM, first compound 0.0316 µM
[10] = second compound 0.1 µM, first compound 0.1 µM
[11] = second compound 0.1 µM, first compound 0.316 µM
[12] = second compound 0.1 µM, first compound 1 µM
[13] = second compound 0.316 µM, first compound 0.00316 µM
[14] = second compound 0.316 µM, first compound 0.01 µM
[15] = second compound 0.316 µM, first compound 0.0316 µM
[16] = second compound 0.316 µM, first compound 0.1 µM
[17] = second compound 0.316 µM, first compound 0.316 µM
[18] = second compound 0.316 µM, first compound 1 µM
[19] = second compound 1 µM, first compound 0.00316 µM
[20] = second compound 1 µM, first compound 0.01 µM
[21] = second compound 1 µM, first compound 0.0316 µM
[22] = second compound 1 µM, first compound 0.1 µM
[23] = second compound 1 µM, first compound 0.316 µM
[24] = second compound 1 µM, first compound 1 µM
[25] = second compound 3.16 µM, first compound 0.00316 µM
[26] = second compound 3.16 µM, first compound 0.01 µM
[27] = second compound 3.16 µM, first compound 0.0316 µM
[28] = second compound 3.16 µM, first compound 0.1 µM
[29] = second compound 3.16 µM, first compound 0.316 µM
[30] = second compound 3.16 µM, first compound 1 µM
[31] = second compound 10 µM, first compound 0.00316 µM
[32] = second compound 10 µM, first compound 0.01 µM
[33] = second compound 10 µM, first compound 0.0316 µM
[34] = second compound 10 µM, first compound 0.1 µM
[35] = second compound 10 µM, first compound 0.316 µM
[36] = second compound 10 µM, first compound 1 µM
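Note: spheroids exposed to compounds for 7 days before viability readout.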
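Throughout, for viability, T/C: luminescence signal used as surrogate for viable cell content; 100% = DMSO vehicle control viability.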

## C=CCn1c(=O)c2cnc(Nc3ccc(N4CCN(C)CC4)cc3)nc2n1-c1cccc(C(C)(C)O)n1 + Cc1cccc(N(C)C(=O)C2C(O)CCN2c2nc(C)cc(C(F)(F)F)c2C#N)c1
Second compound 0.0316 µM
  IC50: > 1000 nM
Second compound 0.1 µM
  IC50: > 1000 nM
Second compound 0.316 µM
  IC50: > 1000 nM
Second compound 1 µM
  IC50: > 1000 nM
Second compound 3.16 µM
  IC50: > 1000 nM
Second compound 10 µM
  IC50: > 1000 nM
[1]
  viability, T/C: 93.1%
[2]
  viability, T/C: 104%
[3]
  viability, T/C: 102%
[4]
  viability, T/C: 92%
[5]
  viability, T/C: 83.3%
[6]
  viability, T/C: 77.8%
[7]
  viability, T/C: 101%
[8]
  viability, T/C: 97.3%
[9]
  viability, T/C: 96%
[10]
  viability, T/C: 87.1%
[11]
  viability, T/C: 88.3%
[12]
  viability, T/C: 76.7%
[13]
  viability, T/C: 101%
[14]
  viability, T/C: 110%
[15]
  viability, T/C: 82.8%
[16]
  viability, T/C: 94.6%
[17]
  viability, T/C: 81.4%
[18]
  viability, T/C: 74.9%
[19]
  viability, T/C: 89.8%
[20]
  viability, T/C: 94.4%
[21]
  viability, T/C: 101%
[22]
  viability, T/C: 85.8%
[23]
  viability, T/C: 87.5%
[24]
  viability, T/C: 75.5%
[25]
  viability, T/C: 97.7%
[26]
  viability, T/C: 120%
[27]
  viability, T/C: 112%
[28]
  viability, T/C: 91.3%
[29]
  viability, T/C: 86.9%
[30]
  viability, T/C: 81.7%
[31]
  viability, T/C: 93.2%
[32]
  viability, T/C: 97.2%
[33]
  viability, T/C: 102%
[34]
  viability, T/C: 85.1%
[35]
  viability, T/C: 81.4%
[36]
  viability, T/C: 75.3%

## CCc1c2c(nc3ccc(O)cc13)-c1cc3c(c(=O)n1C2)COC(=O)[C@]3(O)CC + Cc1cccc(N(C)C(=O)C2C(O)CCN2c2nc(C)cc(C(F)(F)F)c2C#N)c1
Second compound 0.0316 µM
  IC50: 76.2 nM
Second compound 0.1 µM
  IC50: 71.7 nM
Second compound 0.316 µM
  IC50: 68.6 nM
Second compound 1 µM
  IC50: 64.9 nM
Second compound 3.16 µM
  IC50: 35.5 nM
Second compound 10 µM
  IC50: 74.4 nM
[1]
  viability, T/C: 98.7%
[2]
  viability, T/C: 80.6%
[3]
  viability, T/C: 57.2%
[4]
  viability, T/C: 46.8%
[5]
  viability, T/C: 40%
[6]
  viability, T/C: 28.6%
[7]
  viability, T/C: 103%
[8]
  viability, T/C: 81.6%
[9]
  viability, T/C: 54.2%
[10]
  viability, T/C: 46.7%
[11]
  viability, T/C: 41.9%
[12]
  viability, T/C: 28.2%
[13]
  viability, T/C: 107%
[14]
  viability, T/C: 91.9%
[15]
  viability, T/C: 57.9%
[16]
  viability, T/C: 45.3%
[17]
  viability, T/C: 39.4%
[18]
  viability, T/C: 26.1%
[19]
  viability, T/C: 97.2%
[20]
  viability, T/C: 79.8%
[21]
  viability, T/C: 64.2%
[22]
  viability, T/C: 39.2%
[23]
  viability, T/C: 37.9%
[24]
  viability, T/C: 29.4%
[25]
  viability, T/C: 95%
[26]
  viability, T/C: 69.8%
[27]
  viability, T/C: 54.1%
[28]
  viability, T/C: 36.9%
[29]
  viability, T/C: 33.7%
[30]
  viability, T/C: 33.2%
[31]
  viability, T/C: 87.8%
[32]
  viability, T/C: 65.6%
[33]
  viability, T/C: 56.4%
[34]
  viability, T/C: 47.5%
[35]
  viability, T/C: 47.6%
[36]
  viability, T/C: 31.7%
